Broadly, the pIC50 is the IC50 on a negative log10 scale, so that one unit is a factor of ten. Read a low pIC50 as a high IC50.

Structures are written as SMILES. pIC50: −log10 of the molar value.

One assay deals with T1, hCA I (Homo sapiens, UniProt P00915).
T1 construct: hCA I and hCA II isoenzymes purified from human erythrocytes under in vitro conditions; from tissue; host or cells: human erythrocytes
The experiment in a line: Carbonic anhydrase I inhibition assay (esterase method, p-nitrophenyl acetate, 348 nm). The format is biochemical. The conditions noted are these: hCA I purified from human erythrocytes. The source says:
(§1) The esterase method was used to investigate the effects of the molecule on hCA isoenzymes.[44] This method is based on the activity of hCA for the hydrolysis of p-nitrophenyl acetate as a substrate for the reaction mechanism of p-nitrophenol or p-nitrophenolate. […] Since p-nitrophenyl acetate has very little absorption at this wavelength, it will be used as a blank. The p-nitrophenyl acetate substrate solution used in the experiments will be prepared daily.[45],[46]
(§2) Then, the cuvette content containing enzymes, unlike the blank cuvette, was prepared according to Table 1 and placed in the spectrophotometer device. […] Then, molecules at different concentrations were added one by one, the absorbances at 0 and 3 min were measured again, and their differences were taken.[45],[46] […] The enzyme activity values obtained were converted to % activity, their graphs were drawn according to the different concentrations of the molecules, and the IC50 value, that is, the concentration of molecules that reduced the enzyme activity by half, was found. The values were interpreted.
(§3) For the inhibition study, five different inhibitor concentrations of molecules were used at a fixed substrate concentration, and the inhibitor concentration (IC50) values that reduced the enzyme’s activity by half were determined by drawing % activity–[I] graphs.

For a further assay, the target named is T2, hCA II (Homo sapiens, UniProt P00918).
T2 construct: hCA I and hCA II isoenzymes purified from human erythrocytes under in vitro conditions; from tissue; host or cells: human erythrocytes
The experiment in a line: Carbonic anhydrase II inhibition assay (esterase method, p-nitrophenyl acetate, 348 nm). The format is biochemical. The conditions noted are these: hCA II purified from human erythrocytes.
Excerpt: as §1, §2, §3

T1 sequence (P00915 whole entry): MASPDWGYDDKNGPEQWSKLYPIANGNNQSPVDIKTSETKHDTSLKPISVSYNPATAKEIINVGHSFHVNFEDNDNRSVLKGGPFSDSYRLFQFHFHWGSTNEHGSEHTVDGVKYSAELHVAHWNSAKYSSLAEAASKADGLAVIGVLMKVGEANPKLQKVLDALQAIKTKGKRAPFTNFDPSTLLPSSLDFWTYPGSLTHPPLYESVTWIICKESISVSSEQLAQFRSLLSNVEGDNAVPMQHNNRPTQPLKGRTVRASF

For the compound `CC(=NNc1nc(-c2ccc([N+](=O)[O-])cc2)cs1)c1ccc(S(C)(=O)=O)cc1` [2a, 2-(2-(1-(4-(Methylsulfonyl)phenyl)ethylidene)hydrazinyl)-4-(4-nitrophenyl)thiazole], the values for the pIC50 against hCA I and against hCA II were 4.40 and 4.15, respectively.

With `COc1ccc(-c2csc(NN=C(C)c3ccc(S(C)(=O)=O)cc3)n2)cc1` [2b, 2-(2-(1-(4-(Methylsulfonyl)phenyl)ethylidene)hydrazinyl)-4-(4-methoxyphenyl)thiazole], the pIC50 against hCA I was 4.22; at hCA II, 4.12.

For `CC(=NNc1nc(-c2ccc(C#N)cc2)cs1)c1ccc(S(C)(=O)=O)cc1` [2c, 2-(2-(1-(4-(Methylsulfonyl)phenyl)ethylidene)hydrazinyl)-4-(4-cyanophenyl)thiazole], the negative-log IC50 (pIC50) on hCA I is 4.20; against hCA II it was 4.41.

As to `CC(=NNc1nc(-c2ccc(F)cc2)cs1)c1ccc(S(C)(=O)=O)cc1` [2d, 2-(2-(1-(4-(Methylsulfonyl)phenyl)ethylidene)hydrazinyl)-4-(4-fluorophenyl)thiazole], the pIC50 against hCA I was 3.99; on hCA II it was 4.27.

For `CC(=NNc1nc(-c2ccc(-c3ccccc3)cc2)cs1)c1ccc(S(C)(=O)=O)cc1` [2e, 4-([1,1′-Biphenyl]-4-yl)-2-(2-(1-(4-(methylsulfonyl)phenyl)ethylidene)hydrazinyl)thiazole], the pIC50 on hCA I was 4.11; at hCA II, 4.39.

As to `CC(=NNc1nc(-c2ccc(Br)cc2)cs1)c1ccc(S(C)(=O)=O)cc1` [2f, 2-(2-(1-(4-(Methylsulfonyl)phenyl)ethylidene)hydrazinyl)-4-(4-bromophenyl)thiazole], the pIC50 is 3.88 against hCA I and 4.29 against hCA II.

For `CC(=NNc1nc(-c2ccc(C)cc2)cs1)c1ccc(S(C)(=O)=O)cc1` [2g, 2-(2-(1-(4-(Methylsulfonyl)phenyl)ethylidene)hydrazinyl)-4-(4-methylphenyl)thiazole], the figures for the pIC50 on hCA I and against hCA II were 3.70 and 4.10, respectively.

For the compound `CC(=NNc1nc(-c2ccc(Cl)c(Cl)c2)cs1)c1ccc(S(C)(=O)=O)cc1` [2h, 2-(2-(1-(4-(Methylsulfonyl)phenyl)ethylidene)hydrazinyl)-4-(3,4-dichlorophenyl)thiazole], the values for the pIC50 against hCA I and on hCA II were 4.22 and 4.41, respectively.

`CC(=NNc1nc(-c2ccc(F)cc2F)cs1)c1ccc(S(C)(=O)=O)cc1` [2i, 2-(2-(1-(4-(Methylsulfonyl)phenyl)ethylidene)hydrazinyl)-4-(2,4-difluorophenyl)thiazole]: the pIC50 at hCA I is 4.28; on hCA II it was 4.06.

As to `CC(=NNc1nc(-c2cccc([N+](=O)[O-])c2)cs1)c1ccc(S(C)(=O)=O)cc1` [2j, 2-(2-(1-(4-(Methylsulfonyl)phenyl)ethylidene)hydrazinyl)-4-(3-nitrophenyl)thiazole], the pIC50 at hCA I was 4.09; against hCA II, 4.19.

As to `CC(=NNc1nc(-c2ccc(Cl)cc2)cs1)c1ccc(S(C)(=O)=O)cc1` [2k, 2-(2-(1-(4-(Methylsulfonyl)phenyl)ethylidene)hydrazinyl)-4-(4-chlorophenyl) thiazole], the pIC50 was 4.23 against hCA I and 4.06 on hCA II.

In the case of `CC(=NNc1nc(-c2ccc(Cl)cc2Cl)cs1)c1ccc(S(C)(=O)=O)cc1` [2l, 2-(2-(1-(4-(Methylsulfonyl)phenyl)ethylidene)hydrazinyl)-4-(2,4-dichlorophenyl)thiazole], the pIC50 against hCA I was 4.17; against hCA II, 4.15.

Take `CC(=NNc1nc(-c2ccccc2)cs1)c1ccc(S(C)(=O)=O)cc1` [2m, 2-(2-(1-(4-(Methylsulfonyl)phenyl)ethylidene)hydrazinyl)-4-phenylthiazole]: the pIC50 against hCA I is 4.35; at hCA II, 4.27.
